Assay results as given in US20240024266A1, “Therapeutic Agent or Prophylactic Agent for COVID-19” (priority 2020, published 2024).

The compounds below were run on SARS-CoV-2 (assay: Confirmation test of suppressing effect against SARS-CoV-2 proliferation (nucleocapsid Western blotting, VeroE6/TMPRSS2 cells)). Details: 20 μM Pin1 inhibitor, VeroE6/TMPRSS2 cells, MOI 10, cell lysate 8 hours after infection, nucleocapsid band area vs no inhibitor.
Type: cell-based

SMILES | Inhibition Rate [%]
O=C(Nc1ccc(OCc2ccc3ccccc3c2)cc1C(=O)O)c1ccc2ccccc2c1 [H-371] | 99
O=C(Nc1ccc(OCc2ccc3ccccc3c2)cc1C(=O)O)c1ccc2ccccc2c1 [H-487] | 63
Nc1cc(NC(=O)C2c3ccccc3-c3ccccc32)cc(C(=O)OCc2ccccc2)c1 [H-755-2] | 75

Same assay, conditions: Severe acute respiratory syndrome coronavirus 2, VeroE6/TMPRSS2, 8 h, 20 μM Pin1 inhibitor, VeroE6/TMPRSS2 cells, MOI 10, cell lysate 8 hours after infection, nucleocapsid band area vs no inhibitor; read-out: Inhibition Rate

SMILES | inhibition at 20 µM [%]
O=C(O[C@H](Cc1ccc2ccccc2c1)C(=O)O)c1ccc2ccccc2c1 [H-30] | 99
COc1ccc(-c2cc(C(=O)O[C@H](Cc3ccc4ccccc4c3)C(=O)O)c(C)o2)cc1 [H-32] | 86
O=C(O[C@H](Cc1ccc2ccccc2c1)C(=O)O)c1ccc(-c2ccccc2)cc1 [H-33] | 100
O=C(Nc1ccc(OCc2ccccc2)cc1C(=O)O)OCc1ccccc1 [H-78] | 96
O=C(N[C@H](Cc1c[nH]c2ccccc12)C(=O)O)OCC1c2ccccc2-c2ccccc21 [H-95] | 95
O=C(CC1c2ccccc2-c2ccccc21)N[C@H](Cc1ccc2ccccc2c1)C(=O)O [H-103] | 100
O=C(N[C@H](Cc1ccc2ccccc2c1)C(=O)OCc1ccccc1)C1c2ccccc2-c2ccccc21 [H-105] | 100
O=C(CC1c2ccccc2-c2ccccc21)O[C@H](Cc1ccc2ccccc2c1)C(=O)O [H-106] | 100
O=C(O[C@H](Cc1ccc2ccccc2c1)C(=O)O)c1ccc(Oc2ccccc2)cc1 [H-123] | 99
O=C(O[C@H](Cc1ccc2ccccc2c1)C(=O)O)c1cccc(Oc2ccccc2)c1 [H-130] | 100
O=C(O[C@H](Cc1ccc2ccccc2c1)C(=O)O)c1ccccc1Oc1ccccc1 [H-132] | 99
O=C(O[C@H](Cc1ccc2ccccc2c1)C(=O)O)C(c1ccccc1)c1ccccc1 [H-134] | 98
O=C(Cc1ccc2ccccc2c1)O[C@H](Cc1ccc2ccccc2c1)C(=O)O [H-149] | 99
O=C(Cc1cccc2ccccc12)O[C@H](Cc1ccc2ccccc2c1)C(=O)O [H-151] | 98
O=C(O)[C@@H](Cc1ccc2ccccc2c1)OC(=O)N1c2ccccc2Oc2ccccc21 [H-157] | 100
O=C(O)[C@@H](Cc1ccc2ccccc2c1)NC(=O)N1c2ccccc2Oc2ccccc21 [H-162] | 99
O=C(O)[C@@H](Cc1ccc2ccccc2c1)OC(=O)n1c2ccccc2c2ccccc21 [H-175] | 100
O=C(COc1ccc2ccccc2c1)O[C@H](Cc1ccc2ccccc2c1)C(=O)O [H-177] | 99
O=C(COc1cccc2ccccc12)O[C@H](Cc1ccc2ccccc2c1)C(=O)O [H-179] | 97
O=C(O)[C@@H](Cc1ccc2ccccc2c1)OCc1ccc2ccccc2c1 [H-181] | 99
COc1cc(OC)cc(C(=O)O[C@H](Cc2ccc3ccccc3c2)C(=O)O)c1 [H-198] | 67
O=C(O[C@H](Cc1ccc2ccccc2c1)C(=O)O)c1cc(Cl)cc(Cl)c1 [H-200] | 98
Cc1cc(C)cc(C(=O)O[C@H](Cc2ccc3ccccc3c2)C(=O)O)c1 [H-210] | 99
CC(C)(C)OC(=O)N[C@@H](Cc1ccccc1)C(=O)O[C@H](Cc1ccc2ccccc2c1)C(=O)O [H-248] | 88
COc1ccc2c(c1)C(C(=O)O[C@H](Cc1ccc3ccccc3c1)C(=O)O)c1ccccc1-2 (stereo partly drawn) [H-254] | 94
O=C(O[C@H](Cc1ccc2ccccc2c1)C(=O)O)C1c2ccccc2-c2ccc(F)cc21 (stereo partly drawn) [H-262] | 94

SMILES | inhibition at 20 µM [%]
O=C(O[C@H](Cc1ccc2ccccc2c1)C(=O)O)C1c2ccccc2-c2ccc(Cl)cc21 (stereo partly drawn) [H-263] | 54
O=C(O[C@H](Cc1ccc2ccccc2c1)C(=O)O)c1ccc(Cl)c(Cl)c1 [H-269] | 98
O=C(O)[C@@H](Cc1ccc(OCc2ccccc2)cc1)NC(=O)N1c2ccccc2Oc2ccccc21 [H-336] | 98
O=C(O)[C@@H](Cc1ccc(OCc2ccccc2)cc1)NC(=O)n1c2ccccc2c2ccccc21 [H-337] | 100
O=C(O)c1cc(OCc2ccccc2)ccc1NS(=O)(=O)c1ccc2ccccc2c1 [H-338] | 99
O=C(Nc1ccc(OCc2ccccc2)cc1C(=O)O)c1ccc2ccccc2n1 [H-339] | 76
O=C(O)[C@H](NC(=O)n1c2ccccc2c2ccccc21)c1ccccc1 [H-348] | 81
O=C(COc1ccc2ccccc2c1)Nc1ccc(OCc2ccccc2)cc1C(=O)O [H-362] | 99
O=C(Nc1ccc(OCc2ccccc2)cc1C(=O)O)c1cccc(Oc2ccccc2)c1 [H-363] | 99
O=C(O)c1cc(OCc2ccccc2)ccc1NC(=O)c1cccc2ccccc12 [H-370] | 98
COC(=O)[C@@H](Cc1ccc2ccccc2c1)NC(=O)n1c2ccccc2c2ccccc21 [H-393] | 80
O=C(Nc1ccc(OCc2ccccc2)cc1C(=O)O)c1ccc2ccccc2c1 [H-429] | 99
O=C(O[C@H](Cc1cccc2ccccc12)C(=O)O)c1ccc2ccccc2c1 [H-438] | 99
O=C(O)c1cc(OCc2ccc3ccccc3c2)c(C(=O)O)cc1OCc1ccc2ccccc2c1 [H-444] | 55
O=C(Nc1ccc(OCc2ccc3ccccc3c2)c(C(=O)O)c1)c1ccc2ccccc2c1 [H-448] | 100
O=C(O[C@H](Cc1ccc2ccccc2c1)C(=O)O)c1cccc2ccccc12 [H-452] | 52
O=C(O)[C@@H](Cc1ccc2ccccc2c1)OCc1ccccc1Oc1ccccc1 [H-464] | 100
O=C(O)c1cc(OCc2ccc3ccccc3c2)ccc1OCc1ccc2ccccc2c1 [H-488] | 100
O=C(O)c1ccc(OCc2ccc3ccccc3c2)cc1OCc1ccc2ccccc2c1 [H-489] | 99
O=C(O)c1cc(OCc2ccc3ccccc3c2)cc(OCc2ccc3ccccc3c2)c1 [H-491] | 91
O=C(O)CCC(Cc1ccc2ccccc2c1)OC(=O)c1ccc2ccccc2c1 (stereo not drawn) [H-507] | 99
O=C(O)[C@@H](Cc1cccc2ccccc12)NC(=O)n1c2ccccc2c2ccccc21 [H-509] | 98
COc1ccc2cc(CC(OC(=O)c3ccc4ccccc4c3)C(=O)O)ccc2c1 (stereo not drawn) [H-512] | 90
O=C(O)CC(Cc1ccc2ccccc2c1)OC(=O)c1ccc2ccccc2c1 (stereo not drawn) [H-514] | 99
O=C(Cn1c2ccccc2c2ccccc21)N[C@H](Cc1ccc2ccccc2c1)C(=O)O [H-536] | 75
O=C(O)c1cc(NC(=O)n2c3ccccc3c3ccccc32)cc(NC(=O)n2c3ccccc3c3ccccc32)c1 [H-596] | 99

SMILES | inhibition at 20 µM [%]
O=C(O[C@H](Cc1ccc2ccccc2c1)C(=O)O)C1c2ccccc2-c2ccccc21 [H-614] | 96
O=C(N[C@@H](CCCN1C(=O)c2ccccc2C1=O)C(=O)O)C1c2ccccc2-c2ccccc21 [H-619] | 94
COC(=O)c1cc(NC(=O)c2ccc3ccccc3c2)c[n+](Cc2ccc3ccccc3c2)c1 [H-626] | 88
O=C(C/C(=C\c1ccc2ccccc2c1)C(=O)O)NC1c2ccccc2-c2ccccc21 [H-644] | 95
COC(=O)/C(=C/c1ccc2c(c1)OCO2)CC(=O)Nc1cccc2ccccc12 [H-669] | 64
O=C(CC(Cc1ccc2c(c1)OCO2)C(=O)O)Nc1cccc2ccccc12 (stereo not drawn) [H-674] | 50
CC(C)(C)OC(=O)Nc1cc(NC(=O)n2c3ccccc3c3ccccc32)cc(C(=O)O)c1 [H-678] | 87
COC(=O)c1cc(NC(=O)c2cccnc2)cc(NC(=O)n2c3ccccc3c3ccccc32)c1 [H-680] | 53
COC(=O)c1cc(NC(=O)c2ccc3ccccc3n2)cc(NC(=O)n2c3ccccc3c3ccccc32)c1 [H-684] | 66
COC(=O)c1cc(NC(=O)c2cnc3ccccc3n2)cc(NC(=O)n2c3ccccc3c3ccccc32)c1 [H-685] | 58
O=C(O)c1cc(NC(=O)c2cnc3ccccc3n2)cc(NC(=O)n2c3ccccc3c3ccccc32)c1 [H-691] | 52
O=C(O)c1cc(NC(=O)C2COc3ccccc3O2)cc(NC(=O)n2c3ccccc3c3ccccc32)c1 (stereo not drawn) [H-693] | 77
COC(=O)c1cc(NC(C)=O)cc(NC(=O)n2c3ccccc3c3ccccc32)c1 [H-696-2] | 98
COC(=O)[C@H](CCCNC(=O)c1cccnc1)NC(=O)n1c2ccccc2c2ccccc21 [H-707] | 55
O=C(NCCC[C@H](NC(=O)n1c2ccccc2c2ccccc21)C(=O)O)c1cccnc1 [H-708] | 62
O=C(NCCC[C@H](NC(=O)C1c2ccccc2-c2ccccc21)C(=O)O)c1cccnc1 [H-715] | 63
O=C(NCCC[C@H](NC(=O)n1c2ccccc2c2ccccc21)C(=O)O)c1ccc2ccccc2c1 [H-717] | 87
COC(=O)c1cc(N)cc(NC(=O)N(c2ccccc2)c2ccccc2)c1 [H-725-2] | 81
Nc1cc(NC(=O)N(c2ccccc2)c2ccccc2)cc(C(=O)O)c1 [H-727] | 50
COC(=O)/C(=C/c1ccc2ccccc2c1)CC(=O)N1CCCc2ccccc21 [H-739] | 51
O=C(O)/C(=C/c1ccc2ccccc2c1)CC(=O)N1CCc2ccccc2C1 [H-742] | 57
O=C(O)/C(=C/c1ccc2ccccc2c1)CC(=O)N1CCCc2ccccc21 [H-743] | 59
Nc1cc(NC(=O)C2c3ccccc3-c3ccccc32)cc(C(=O)OCc2ccccc2)c1 [H-755] | 78
COC(=O)c1cc(NC(=O)COc2ccccn2)cc(NC(=O)n2c3ccccc3c3ccccc32)c1 [H-762] | 83
O=C(COc1ccccn1)Nc1cc(NC(=O)n2c3ccccc3c3ccccc32)cc(C(=O)O)c1 [H-763] | 97

Same assay, conditions: Severe acute respiratory syndrome coronavirus 2, VeroE6/TMPRSS2, 8 h, read-out: Inhibition Rate

SMILES | inhibition at 20 µM [%]
COP(=O)(OC)OCC(COc1cccc2ccccc12)OCc1ccc2ccccc2c1 (stereo not drawn) [H-546] | 83
